#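 Briefly, cells in 96-well plates were exposed to five compound concentrations for 48 h, and endpoints were estimated by linear interpolation. Abbreviation: GI50, concentration required for 50% inhibition of growth. TGI is the concentration that stops growth completely.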
# Columns and labels:
# Test in all cases: NCI tumour cell line growth inhibition, 48 h
# [1] = tested on: 786-0 renal
# [2] = tested on: A498 renal
# [3] = tested on: A549 NSCLC
# [4] = tested on: ACHN renal
# [5] = tested on: BT-549 breast
# [6] = tested on: CAKI-1 renal
# [7] = tested on: CCRF-CEM leukemia
# [8] = tested on: COLO 205 colon
# [9] = tested on: DU-145 prostate
# [10] = tested on: EKVX NSCLC
# [11] = tested on: HCC-2998 colon
# [12] = tested on: HCT-116 colon
# [13] = tested on: HCT-15 colon
# [14] = tested on: HL-60(TB) leukemia
# [15] = tested on: HOP-62 NSCLC
# [16] = tested on: HOP-92 NSCLC
# [17] = tested on: HS 578T breast
# [18] = tested on: HT29 colon
# [19] = tested on: IGROV1 ovarian
# [20] = tested on: K-562 leukemia
# [21] = tested on: KM12 colon
# [22] = tested on: LOX IMVI melanoma
# [23] = tested on: M14 melanoma
# [24] = tested on: MALME-3M melanoma
# [25] = tested on: MCF7 breast
# [26] = tested on: MDA-MB-231 breast
# [27] = tested on: MDA-MB-435
# [28] = tested on: MOLT-4 leukemia
# [29] = tested on: NCI-H226 lung
smiles,measurement,setting,value
CN1CCN(Cc2ccc(NC(=O)c3cncc(C#Cc4cnc(N)c5ccccc45)c3)cc2C(F)(F)F)CC1,GI50,[1],0.423 µM
same,TGI,[1],0.89 µM
same,GI50,[2],0.299 µM
same,TGI,[2],1.14 µM
same,GI50,[3],0.342 µM
same,TGI,[3],0.93 µM
same,GI50,[4],0.145 µM
same,TGI,[4],0.523 µM
same,GI50,[5],1.57 µM
same,TGI,[5],5.8 µM
same,GI50,[6],0.271 µM
same,TGI,[6],0.7 µM
same,GI50,[7],0.125 µM
same,TGI,[7],1.44 µM
same,GI50,[8],0.405 µM
same,TGI,[8],0.948 µM
same,GI50,[9],0.213 µM
same,TGI,[9],0.678 µM
same,GI50,[10],0.413 µM
same,TGI,[10],0.974 µM
same,GI50,[11],0.42 µM
same,TGI,[11],0.878 µM
same,GI50,[12],0.16 µM
same,TGI,[12],0.581 µM
same,GI50,[13],0.124 µM
same,TGI,[13],0.534 µM
same,GI50,[14],0.165 µM
same,TGI,[14],0.665 µM
same,GI50,[15],0.324 µM
same,TGI,[15],1.25 µM
same,GI50,[16],0.401 µM
same,TGI,[16],1.25 µM
same,GI50,[17],0.371 µM
same,TGI,[17],1.18 µM
same,GI50,[18],0.28 µM
same,TGI,[18],1.29 µM
same,GI50,[19],0.127 µM
same,TGI,[19],0.615 µM
same,GI50,[20],0.00333 µM
same,TGI,[20],0.524 µM
same,GI50,[21],0.0148 µM
same,TGI,[21],0.43 µM
same,GI50,[22],0.387 µM
same,TGI,[22],0.837 µM
same,GI50,[23],0.133 µM
same,TGI,[23],0.551 µM
same,GI50,[24],0.315 µM
same,TGI,[24],0.774 µM
same,GI50,[25],0.371 µM
same,TGI,[25],0.892 µM
same,GI50,[26],0.369 µM
same,TGI,[26],0.82 µM
same,GI50,[27],0.348 µM
same,TGI,[27],0.783 µM
same,GI50,[28],0.164 µM
same,TGI,[28],1.16 µM
same,GI50,[29],0.393 µM
same,TGI,[29],1.13 µM

# — PubChem BioAssay (NCI)
